# Laboratory results as given in ChEMBL document CHEMBL5465560, “Selectivity Literature for EUbOPEN Chemogenomic Library” (2024).
# Tests used:
# [1] = target: T1, Peripheral plasma membrane protein CASK (Homo sapiens) (UniProt O14936); conditions: at 10 µM
# T1 sequence (whole entry): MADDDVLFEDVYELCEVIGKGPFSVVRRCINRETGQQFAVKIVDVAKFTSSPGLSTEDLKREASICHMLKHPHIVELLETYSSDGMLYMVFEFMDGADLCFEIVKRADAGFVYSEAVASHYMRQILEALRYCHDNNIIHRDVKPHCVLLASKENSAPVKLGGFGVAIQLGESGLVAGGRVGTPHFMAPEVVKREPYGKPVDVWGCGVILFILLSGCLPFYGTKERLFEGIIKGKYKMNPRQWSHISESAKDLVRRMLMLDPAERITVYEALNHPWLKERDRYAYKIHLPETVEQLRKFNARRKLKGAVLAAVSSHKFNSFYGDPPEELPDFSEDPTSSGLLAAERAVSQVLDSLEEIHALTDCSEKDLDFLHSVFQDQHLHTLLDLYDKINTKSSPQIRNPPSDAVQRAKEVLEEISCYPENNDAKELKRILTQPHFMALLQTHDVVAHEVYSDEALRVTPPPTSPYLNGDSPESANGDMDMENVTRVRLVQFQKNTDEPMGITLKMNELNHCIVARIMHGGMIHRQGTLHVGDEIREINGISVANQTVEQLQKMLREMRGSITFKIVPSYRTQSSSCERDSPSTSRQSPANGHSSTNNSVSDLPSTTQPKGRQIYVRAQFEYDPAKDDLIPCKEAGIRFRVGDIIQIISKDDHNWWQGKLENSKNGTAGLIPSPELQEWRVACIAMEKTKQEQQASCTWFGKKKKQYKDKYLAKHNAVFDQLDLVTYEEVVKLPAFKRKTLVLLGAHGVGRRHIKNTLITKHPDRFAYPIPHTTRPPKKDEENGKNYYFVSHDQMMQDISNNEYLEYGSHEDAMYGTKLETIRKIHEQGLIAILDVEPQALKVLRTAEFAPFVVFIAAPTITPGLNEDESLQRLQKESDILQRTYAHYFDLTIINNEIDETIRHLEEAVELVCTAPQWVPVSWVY
# [2] = target: T2, Serine/threonine-protein kinase TNNI3K (Homo sapiens) (UniProt Q59H18); conditions: at 10 µM
# T2 sequence (whole entry): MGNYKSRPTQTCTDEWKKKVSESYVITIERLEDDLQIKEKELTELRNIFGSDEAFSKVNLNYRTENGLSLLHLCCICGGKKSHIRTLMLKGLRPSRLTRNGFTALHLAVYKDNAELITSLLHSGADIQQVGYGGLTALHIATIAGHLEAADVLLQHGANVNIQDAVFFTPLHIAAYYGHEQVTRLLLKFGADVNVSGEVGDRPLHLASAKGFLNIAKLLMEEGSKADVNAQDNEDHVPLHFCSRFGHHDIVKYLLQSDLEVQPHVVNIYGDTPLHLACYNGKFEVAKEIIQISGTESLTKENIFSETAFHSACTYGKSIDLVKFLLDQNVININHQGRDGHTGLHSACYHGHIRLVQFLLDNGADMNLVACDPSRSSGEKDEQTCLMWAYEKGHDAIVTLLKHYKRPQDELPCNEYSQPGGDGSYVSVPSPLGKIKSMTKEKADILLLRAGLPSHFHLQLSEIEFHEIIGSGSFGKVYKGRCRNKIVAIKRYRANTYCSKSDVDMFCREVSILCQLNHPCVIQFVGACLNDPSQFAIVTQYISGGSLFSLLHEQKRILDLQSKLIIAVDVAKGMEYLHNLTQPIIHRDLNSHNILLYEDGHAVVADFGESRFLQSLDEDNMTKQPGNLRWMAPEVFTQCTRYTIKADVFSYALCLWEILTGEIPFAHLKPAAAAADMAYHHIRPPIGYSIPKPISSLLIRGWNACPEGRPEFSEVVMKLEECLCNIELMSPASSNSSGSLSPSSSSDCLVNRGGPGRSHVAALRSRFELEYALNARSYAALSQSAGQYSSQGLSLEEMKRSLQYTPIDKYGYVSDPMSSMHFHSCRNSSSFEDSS
# [3] = target: Casein kinase II subunit alpha (Homo sapiens, UniProt P68400); conditions: at 10 µM
# [4] = target: Serine/threonine-protein kinase/endoribonuclease IRE1 (Homo sapiens) (UniProt O75460); assay: Selectivity interaction (KinomeScan (DiscoverX)) EUB0000092b ERN1; conditions: at 10 µM
# [5] = target: T3, Calcium/calmodulin-dependent protein kinase type IV (Homo sapiens) (UniProt Q16566); assay: Selectivity interaction (KinomeScan (DiscoverX)) EUB0000655a CAMK4; conditions: at 10 µM
# T3 sequence (whole entry): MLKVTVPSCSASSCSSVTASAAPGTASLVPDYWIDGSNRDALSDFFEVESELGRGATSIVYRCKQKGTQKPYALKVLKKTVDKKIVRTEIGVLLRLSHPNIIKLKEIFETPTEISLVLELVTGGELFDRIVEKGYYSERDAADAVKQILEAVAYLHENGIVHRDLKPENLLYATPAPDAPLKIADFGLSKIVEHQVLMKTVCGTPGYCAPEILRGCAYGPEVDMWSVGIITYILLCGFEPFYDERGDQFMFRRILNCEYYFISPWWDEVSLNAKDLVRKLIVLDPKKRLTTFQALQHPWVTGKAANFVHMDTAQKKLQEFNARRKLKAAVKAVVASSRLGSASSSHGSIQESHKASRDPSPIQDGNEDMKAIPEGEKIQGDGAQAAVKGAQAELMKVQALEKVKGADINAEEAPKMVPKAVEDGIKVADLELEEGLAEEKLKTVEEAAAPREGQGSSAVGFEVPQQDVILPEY
# [6] = target: MAP kinase-activated protein kinase 2 (Homo sapiens, UniProt P49137); assay: Selectivity interaction (KinomeScan (DiscoverX)) EUB0000655a MAPKAPK2; conditions: at 10 µM
# [7] = target: Serine/threonine-protein kinase 38-like (Homo sapiens) (UniProt Q9Y2H1); assay: Selectivity interaction (Kinase panel (KiNativ target engagement assay in Jurkat cells)) EUB0001635a STK38L; type: cell-based; conditions: Selectivity number of off-targets 0.0, Selectivity number of targets 233.0, Source Knowledge https://www.sciencedirect.com/science/article/pii/S2451945619300674?via%3Dihub, at 1 µM
# Sequence of Serine/threonine-protein kinase 38-like (Homo sapiens) (Q9Y2H1 2-464 limits assumed): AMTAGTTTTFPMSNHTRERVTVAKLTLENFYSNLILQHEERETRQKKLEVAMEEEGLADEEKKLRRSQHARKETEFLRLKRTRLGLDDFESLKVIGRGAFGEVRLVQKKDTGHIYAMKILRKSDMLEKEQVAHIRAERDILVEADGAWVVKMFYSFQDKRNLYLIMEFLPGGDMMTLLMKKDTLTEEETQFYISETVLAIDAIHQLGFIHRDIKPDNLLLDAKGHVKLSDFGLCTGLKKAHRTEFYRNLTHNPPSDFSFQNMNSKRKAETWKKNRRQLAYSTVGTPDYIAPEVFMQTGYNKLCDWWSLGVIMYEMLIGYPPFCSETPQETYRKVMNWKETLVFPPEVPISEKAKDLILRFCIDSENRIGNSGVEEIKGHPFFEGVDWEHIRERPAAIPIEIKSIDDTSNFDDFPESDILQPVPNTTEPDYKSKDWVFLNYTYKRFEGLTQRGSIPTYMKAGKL
# Sequence of Serine/threonine-protein kinase/endoribonuclease IRE1 (Homo sapiens) (O75460 19-977 limits assumed): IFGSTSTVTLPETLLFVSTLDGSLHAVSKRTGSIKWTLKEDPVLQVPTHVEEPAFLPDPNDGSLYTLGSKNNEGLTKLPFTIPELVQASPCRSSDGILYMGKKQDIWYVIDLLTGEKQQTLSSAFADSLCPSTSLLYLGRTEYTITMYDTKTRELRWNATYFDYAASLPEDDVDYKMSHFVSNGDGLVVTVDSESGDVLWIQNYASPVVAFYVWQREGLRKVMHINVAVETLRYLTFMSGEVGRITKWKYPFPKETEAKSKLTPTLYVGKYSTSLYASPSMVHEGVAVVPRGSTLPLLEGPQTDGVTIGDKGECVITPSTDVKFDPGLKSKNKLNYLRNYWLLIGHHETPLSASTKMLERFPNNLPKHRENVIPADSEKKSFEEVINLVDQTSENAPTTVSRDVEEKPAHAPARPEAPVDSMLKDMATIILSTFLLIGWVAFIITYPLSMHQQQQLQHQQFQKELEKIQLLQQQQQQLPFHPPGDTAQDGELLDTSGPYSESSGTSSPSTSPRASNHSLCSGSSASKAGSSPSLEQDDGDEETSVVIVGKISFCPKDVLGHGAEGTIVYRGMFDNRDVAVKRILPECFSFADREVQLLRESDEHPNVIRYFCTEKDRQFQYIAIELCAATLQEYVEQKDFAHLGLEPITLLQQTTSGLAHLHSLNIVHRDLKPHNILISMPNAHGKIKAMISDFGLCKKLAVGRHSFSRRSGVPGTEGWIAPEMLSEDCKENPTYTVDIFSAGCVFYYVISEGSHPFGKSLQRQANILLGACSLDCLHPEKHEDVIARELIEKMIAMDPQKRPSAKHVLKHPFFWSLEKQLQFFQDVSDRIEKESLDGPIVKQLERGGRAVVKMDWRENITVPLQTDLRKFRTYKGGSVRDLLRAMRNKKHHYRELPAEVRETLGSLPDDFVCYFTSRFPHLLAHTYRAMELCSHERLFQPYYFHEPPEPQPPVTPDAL
# Sequence of MAP kinase-activated protein kinase 2 (P49137 whole entry, looked up): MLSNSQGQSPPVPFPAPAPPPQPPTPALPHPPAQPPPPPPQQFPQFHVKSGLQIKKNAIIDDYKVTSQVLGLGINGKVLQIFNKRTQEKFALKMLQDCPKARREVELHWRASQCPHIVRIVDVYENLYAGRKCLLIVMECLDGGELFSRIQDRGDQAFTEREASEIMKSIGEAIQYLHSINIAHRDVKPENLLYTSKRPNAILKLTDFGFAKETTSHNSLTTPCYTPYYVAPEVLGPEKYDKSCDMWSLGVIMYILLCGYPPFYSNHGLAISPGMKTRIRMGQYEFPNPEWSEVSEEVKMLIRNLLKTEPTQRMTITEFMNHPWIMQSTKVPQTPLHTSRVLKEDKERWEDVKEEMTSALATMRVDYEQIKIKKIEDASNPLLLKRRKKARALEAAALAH
# Sequence of Casein kinase II subunit alpha (P68400 whole entry, looked up): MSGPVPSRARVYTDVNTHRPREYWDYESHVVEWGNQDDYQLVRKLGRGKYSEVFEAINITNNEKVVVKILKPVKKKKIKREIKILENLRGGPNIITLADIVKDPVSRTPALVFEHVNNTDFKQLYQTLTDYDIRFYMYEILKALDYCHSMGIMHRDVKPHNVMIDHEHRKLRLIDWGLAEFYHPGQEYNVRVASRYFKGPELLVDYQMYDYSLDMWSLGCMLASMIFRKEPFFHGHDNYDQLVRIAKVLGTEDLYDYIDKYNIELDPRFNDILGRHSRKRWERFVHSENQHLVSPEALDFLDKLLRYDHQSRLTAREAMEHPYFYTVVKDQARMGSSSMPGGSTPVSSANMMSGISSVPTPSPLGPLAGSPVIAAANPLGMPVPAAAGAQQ
structure (smiles),measurement,setting,value
Cc1cc([C@@H](C)Nc2ccccc2C(=O)O)c2nc(N3CCOCC3)cc(=O)n2c1 [AZD-6482],% of control,[1],92%
same,% of control,[2],88%
CCN(CC)CCCCNc1ncc2cc(-c3cc(OC)cc(OC)c3)c(NC(=O)NC(C)(C)C)nc2n1,% of control,[3],100%
CCC(=O)N1CCN(c2ccc(-n3c(=O)ccc4cnc5ccc(-c6cnc7ccccc7c6)cc5c43)cc2C(F)(F)F)CC1,% of control,[4],100%
CN(C)CCOc1ccc(-c2nc(-c3ccncc3)c(-c3ccc4c(c3)CC/C4=N\O)[nH]2)cc1,% of control,[5],87%
same,% of control,[6],100%
C=CC(=O)Nc1ccc(C(=O)Nc2[nH]nc3c2CN(C(=O)N[C@H](CN(C)C)c2ccccc2)C3(C)C)cc1,% of engagement,[7],-0.3%
